Experimental data from ChEMBL document CHEMBL5257038, “Active Natural Product Scaffolds against Trypanosomatid Parasites: A Review” (J Nat Prod, 2018).

What was measured:
Trypanosoma cruzi [1] = assay: Antitrypanosomal activity against intracellular Trypanosoma cruzi amastigote assessed as reduction in parasite growth; type: functional, organism-based
Leishmania donovani [2] = assay: Antileishmanial activity against amastigote form of Leishmania donovani assessed as parasite growth inhibition; type: functional, organism-based
[3] = Selectivity index, ratio of IC50 for cytotoxicity against African green monkey Vero cells to IC50 for antitrypanosomal activity against Trypanosoma cruzi amastigote; type: toxicity, cell-based; conditions: read-out: Ratio IC50
[4] = Selectivity index, ratio of IC50 for cytotoxicity against African green monkey Vero cells to IC50 for antileishmanial activity against amastigote form of Leishmania donovani; type: toxicity, cell-based; conditions: read-out: Ratio IC50
[5] = system: Trypanosoma brucei brucei; assay: Antitrypanosomal activity against bloodstream form of Trypanosoma brucei brucei assessed as reduction in parasite growth; type: functional, organism-based
[6] = system: Trypanosoma cruzi (intracellular amastigotes); assay: Antiparasitic activity against Trypanosoma cruzi intracellular amastigotes assessed as reduction in cell viability at 50 uM relative to control
[7] = system: Trypanosoma cruzi (intracellular amastigotes); assay: as above; remark: listed apart in the source
[8] = Selectivity index, ratio of CC50 for cytotoxicity against HEK293T cells to EC50 for antitrypanosomal activity against bloodstream form of Trypanosoma brucei brucei; type: toxicity, cell-based; conditions: human, read-out: Ratio CC50/EC50
[9] = Selectivity index, ratio of CC50 for cytotoxicity against human HepG2 cells to EC50 for antitrypanosomal activity against bloodstream form of Trypanosoma brucei brucei; type: toxicity, cell-based; conditions: read-out: Ratio CC50/EC50
Leishmania donovani [10] = assay: Antileishmanial activity against Leishmania donovani intracellular amastigotes assessed as parasite growth inhibition; type: functional, organism-based
Trypanosoma cruzi [11] = assay: Antitrypanosomal activity against epimastigote form of Trypanosoma cruzi assessed as reduction in parasite growth; type: functional, organism-based
Leishmania major = assay: Antileishmanial activity against Leishmania major promastigotes assessed as parasite growth inhibition; type: functional, organism-based
[12] = Selectivity index, ratio of EC50 for cytotoxicity against African green monkey Vero cells to EC50 for antitrypanosomal activity against Trypanosoma brucei brucei; type: toxicity, cell-based; conditions: read-out: Ratio EC50
[13] = system: Trypanosoma brucei brucei; assay: Antitrypanosomal activity against Trypanosoma brucei brucei; type: functional, organism-based
[14] = Selectivity index, ratio of EC50 for cytotoxicity against African green monkey Vero cells to EC50 for antileishmanial activity against Leishmania major promastigotes; type: toxicity, cell-based; conditions: read-out: Ratio EC50
[15] = Selectivity index, ratio of EC50 for cytotoxicity against African green monkey Vero cells to EC50 for antitrypanosomal activity against epimastigote form of Trypanosoma cruzi; type: toxicity, cell-based; conditions: read-out: Ratio EC50
Leishmania amazonensis [16] = assay: Antileishmanial activity against Leishmania amazonensis promastigotes assessed as parasite growth inhibition; type: functional, organism-based
Trypanosoma cruzi [17] = assay: In vivo antitrypanosomal activity against Trypanosoma cruzi infected in mouse assessed as fold reduction in parasitemia measured upto 30 days; type: functional; conditions: time <= 30 day
Trypanosoma cruzi [18] = assay: In vivo antitrypanosomal activity against Trypanosoma cruzi infected in mouse assessed as survival rate measured upto 30 days relative to control; type: functional; conditions: time <= 30 day
Leishmania mexicana = assay: Antileishmanial activity against Leishmania mexicana promastigotes assessed as parasite growth inhibition; type: functional, organism-based
Trypanosoma brucei [19] = assay: Antitrypanosomal activity against Trypanosoma brucei; type: functional, organism-based
[20] = Selectivity index, ratio of CC50 for cytotoxicity against mouse J774.G8 cells to IC50 for antileishmanial activity against Leishmania amazonensis promastigotes; type: toxicity, cell-based; conditions: read-out: Ratio CC50/IC50
Leishmania amazonensis [21] = assay: Antileishmanial activity against Leishmania amazonensis intracellular amastigotes assessed as parasite growth inhibition; type: functional, organism-based
[22] = Selectivity index, ratio of CC50 for cytotoxicity against rat L6 cells to IC50 for […] activity against amastigote form of Leishmania donovani; type: toxicity, cell-based; conditions: read-out: Ratio CC50/IC50
[23] = system: Trypanosoma brucei rhodesiense; assay: Antitrypanosomal activity against bloodstream form of Trypanosoma brucei rhodesiense assessed as parasite growth inhibition; type: functional, organism-based
[24] = Selectivity index, ratio of CC50 for cytotoxicity against rat L6 cells to IC50 for antitrypanosomal activity against bloodstream form of Trypanosoma brucei rhodesiense; type: toxicity, cell-based; conditions: read-out: Ratio CC50/IC50
Leishmania amazonensis [25] = assay: Antileishmanial activity against Leishmania amazonensis amastigotes assessed as parasite growth inhibition; type: functional, organism-based
[26] = Inhibition of Trypanosoma brucei CLK1
Trypanosoma brucei [27] = assay: Antitrypanosomal activity against bloodstream form of Trypanosoma brucei assessed as parasite growth inhibition; type: functional, organism-based
Trypanosoma brucei [28] = assay: In vivo antitrypanosomal activity against Trypanosoma brucei infected in mouse assessed as cured animal rate at 10 mg/kg administered once daily for 7 days relative to control; type: functional; conditions: time 7 day
Trypanosoma cruzi [29] = assay: In vivo antitrypanosomal activity against Trypanosoma cruzi infected in mouse assessed as survival rate measured upto 50 days relative to control; type: functional; conditions: time <= 50 day
Trypanosoma cruzi [30] = assay: Antitrypanosomal activity against trypomastigote form of Trypanosoma cruzi assessed as reduction in parasite growth; type: functional, organism-based

C/C1=C/C(=O)O[C@H](C(C)(C)C)CCC[C@H](O)CCC[C@H](O)CCC[C@H](O)CCC[C@@H](O)C[C@@H](O)C[C@H](O)CCC[C@@H](O)CCC[C@@H](O)C[C@@H](O)CCCCC1
EC50 (Trypanosoma cruzi [1]): 6.5 µM | EC50 (Leishmania donovani [2]): 3 µM | selectivity ratio [3]: 2 | selectivity ratio [4]: 1

C=C1CO[C@H]2/C=C(\C)CC[C@@H]3O[C@@]3(C)CC/C=C(\C)CC[C@@]12O
EC50 [5]: 5.3 µM | Activity [6]: 15.2% | Activity [7]: 15.2% | selectivity ratio [8]: > 20 | selectivity ratio [9]: > 20

C=C(C)[C@H]1[C@H]2[C@@H](OC(C)=O)C[C@@H](C)[C@@H]3C(OC)C=C(C)[C@@]213 (some centres not stated)
EC50 (Leishmania donovani [10]): 5 µM

CCOC1C[C@H](CCCCOCc2ccccc2)O[C@H](Cn2cc([C@@H]3CCC[C@H](CCCCOCc4ccccc4)O3)nn2)C1 (some centres not stated)
EC50 (Trypanosoma cruzi [11]): 12.7 µM | EC50 (Leishmania major): 15.3 µM | selectivity ratio [12]: 100 | EC50 [13]: 5.1 µM | selectivity ratio [14]: 33 | selectivity ratio [15]: 39

C=C1C(=O)O[C@@H]2[C@H]1CC[C@H](C)[C@@H]1CCC(=O)O[C@@]21C
EC50 (Leishmania amazonensis [16]): 5.7 µM | EC50 (Trypanosoma cruzi [11]): 2.3 µM | EC50 (Trypanosoma cruzi [1]): 3.4 µM | fold change (FC) (Trypanosoma cruzi [17]): 2 | Survival (Trypanosoma cruzi [18]): 20% | EC50 (Leishmania mexicana): 4.5 µM

C/C=C/[C@]1(C)C[C@@](/C=C(\C)C[C@@H](CC)CC/C=C/CC)(CC)OO1
EC50 (Trypanosoma brucei [19]): 5 µM

C=C1CC[C@@H](OC(C)=O)[C@H]2CC=C3[C@](C)(CC[C@]3(O)C(C)C)C[C@]12O
EC50 (Leishmania amazonensis [16]): 5.5 µM | selectivity ratio [20]: 93 | EC50 (Leishmania amazonensis [21]): 18 µM

NC1=N[C@]2([C@H](O)N1)[C@@H](Cl)[C@H](CCl)[C@H]1CN3C(=O)c4cc(Br)c(Br)n4[C@@H]4NC(N)=N[C@@]43[C@@H]12
selectivity ratio [22]: 4 | EC50 [23]: 0.8 µM | EC50 (Trypanosoma cruzi [1]): 120 µM | selectivity ratio [24]: 10 | EC50 (Leishmania donovani [2]): 1.9 µM

CC(C)[C@@H](C)/C=C/[C@@H](C)[C@H]1CC[C@@H]2[C@]1(C)CC[C@H]1[C@]23C=C[C@]2(C[C@@H](O)CC[C@]12C)OO3 [ERGOSTEROL PEROXIDE]
EC50 (Leishmania amazonensis [16]): 13.9 µM | EC50 (Trypanosoma cruzi [11]): 16.8 µM | EC50 (Leishmania amazonensis [25]): 4 µM

COc1cc(O)c2c(c1)[C@H]1O[C@@H]1C[C@H](O)[C@H](O)C(=O)/C=C\C[C@H](C)OC2=O [HYPOTHEMYCIN]
IC50 [26]: 0.15 µM | EC50 (Trypanosoma brucei [27]): 0.17 µM | Activity (Trypanosoma brucei [28]): 33%

C=C1C(=O)O[C@@H]2[C@H]1CC[C@H](C)[C@]1(CCC(=O)O1)[C@@]2(C)O [PSILOSTACHYIN A]
EC50 (Trypanosoma cruzi [11]): 4.3 µM | fold change (FC) (Trypanosoma cruzi [17]): 1.5 | Survival (Trypanosoma cruzi [29]): 100% | EC50 (Trypanosoma cruzi [30]): 12.5 µM | EC50 (Leishmania mexicana): 0.42 µM
